In patent US20040096356A1, “Assay device for determining analytes in a liquid dairy product” (priority 1997, published 2004):

What was measured:
receptor BlaR-CTD [1] = molecular target: T1, receptor BlaR-CTD (Bacillus licheniformis, UniProt P12287); experiment: 3-minute rapid test: strip test for β-lactam antibiotics in milk using BlaR-CTD; format: binding; details: for Intensity 1st band: scale 0 to 10, reference band 6, 47° C., 1 min incubation + 2 min migration
T1 construct: the receptor BlaR-CTD is the carboxy-terminal region of BlaR
Excerpt: (§1) According to a preferred embodiment of the invention an identifier is used which comprises a receptor sensitive to antibiotics having a β-lactam ring, which receptor is obtained from Bacillus licheniformis, such as the receptor BlaR or the receptor BlaR-CTD. The isolation and the peptide sequence of the protein BlaR are described in Y. Zhu et al., J. Bacteriol., 1137-1141 (1990); the receptor BlaR-CTD is the carboxy-terminal region of BlaR, whose isolation and peptide sequence are described in B. Joris et al., FEMS Microbiology Letters, 107-114 (1990).
(§2) This example illustrates the detection in milk of antibiotics having a β-lactam ring which are monitored by the health authorities. The test described in this example uses the receptor BlaR-CTD coupled with gold beads, which serve as labelling agents, and uses a support which is in the form of an assay device comprising a solid support on which membranes are fixed.
(§3) 3.79 ml of a solution of recognition agent BlaR-CTD having a concentration of 6.6 mg/ml are taken up in a sodium phosphate buffer, 20 mM pH 7. To this solution of BlaR-CTD are then added 41.71 ml of bicarbonate buffer (0.1 M sodium bicarbonate, pH 9) and 2 ml of a solution of N-hydroxysuccinimide 6-(biotinamido)caproic ester containing 2.23 mg/ml likewise of bicarbonate buffer. This solution is stirred gently on a LABINCO stirrer for tubes on a rotary axis (available from VEL, Belgium) at a rate of 2 revolutions/minute for 2 hours at ambient temperature and away from light. 2.5 ml of a solution of Tris buffer, 1 M pH 8 are incubated with the reaction mixture under the same conditions for 30 minutes. The solution thus obtained is dialysed against HNM buffer (Hepes 100 mM, pH 8, NaCl 100 mM, MgCl2 50 mM) for 24 hours. In this way a biotinylated BlaR-CTD solution is obtained which is diluted in HNM-BSA buffer (Hepes 500 mM, pH 8, NaCl 500 mM, MgCl2 250 mM, BSA 10 mg/ml) to a concentration of 250 μg of biotinylated BlaR-CTD per ml of buffer. This solution is stored at −20° C.
(§4) The biotinylated BlaR-CTD solution prepared in Example 3.1.1 is diluted 114.7 times with the HNM-BSA buffer (Hepes 500 mM, pH 8, NaCl 500 mM, MgCl2 250 mM, BSA 10 mg/ml). At room temperature, 22.5 parts by volume of this dilute biotinylated BlaR-CTD solution, 7.5 parts by volume of HNM-BSA buffer, 9.27 parts by volume of the gold particle suspension used to label the biotinylated BlaR-CTD and 6 parts by volume of reference gold particle suspension are mixed (see Example 3.1.4 below).
(§5) The first capture substance makes it possible to fix the BlaR-CTD coupled with the gold beads present in excess relative to the quantity of antibiotic present in the sample.
(§6) Assay devices containing membranes (2), (3) and (4) are used, assembled in accordance with the procedure described in Example 1.1. The membrane (3) of these devices carries on the proximal side the capture substance described in Example 32.1. and on the distal side the capture substance described in Example 3.2.2. The capture substances were deposited in accordance with the procedure described in Example 1.2.
7 samples of fresh milk are prepared, containing 0; 1; 2; 3; 4; 5 and 6 ppb, respectively, of penicillin G. Each of these solutions is then analysed as follows.
An aliquot is taken of 200 μl of milk sample and 45.27 μl of solution prepared in Example 3.1.3, and is placed in a glass flask. This mixture is incubated at 47° C. for 1 minute. An assay device is taken and is placed vertically in the glass flask such that the first end of the assay device is in contact with the mixture and such that the second end rests on the wall of the glass flask. The mixture is allowed to migrate over the assay device while the assembly is incubated at 47° C. for 2 minutes.
(§7) An intensity value ranging from 0 to 10 is awarded to the bands detected, the value 10 being given to the most intense band and the value 0 being given to the least intense band. On this scale, a value of 6 is awarded to the reference band. […]

receptor BlaR-CTD [2] = molecular target: T1, receptor BlaR-CTD; experiment: Five minutes test: strip test for β-lactam antibiotics in milk using BlaR-CTD; format: binding; details: in 5 minutes; positive when first band is less intense than second band
Excerpt: as §1, §2, §3, §4, §5, §6
Six samples of fresh milk are prepared, containing 0; 2; 4; 6; 8 and 10 ppb, repsectively, of cloxacillin. Each of these solutions is then analysed as follows.
An aliquot is taken of 200 μl of milk sample and 45.27 μl of solution prepared in Example 3.1.3, and is placed in a glass flask. This mixture is incubated at 47° C. for 3 minutes. An assay device is taken and is placed vertically in the glass flask such that the first end of the assay device is in contact with the mixture in such a way that the second end rests on the wall of the glass flask. The mixture is allowed to migrate over the assay device while the assembly is incubated at 47° C. for 2 minutes.
as §7

T1 sequence (P12287 340-601): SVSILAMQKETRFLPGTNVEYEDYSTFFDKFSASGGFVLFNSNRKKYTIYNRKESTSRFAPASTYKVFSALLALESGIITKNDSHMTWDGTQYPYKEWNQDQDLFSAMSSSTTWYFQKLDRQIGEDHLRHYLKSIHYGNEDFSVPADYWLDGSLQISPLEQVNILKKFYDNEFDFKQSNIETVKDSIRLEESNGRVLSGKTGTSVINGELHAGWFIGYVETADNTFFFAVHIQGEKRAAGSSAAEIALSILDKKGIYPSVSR

## CC1(C)S[C@@H]2[C@H](NC(=O)Cc3ccccc3)C(=O)N2[C@H]1C(=O)O [Penicillin G, penicillin G]
Receptor BlaR-CTD [1]; 1 ppb penicillin G in fresh milk
  Intensity 1st band: 9
Receptor BlaR-CTD [1]; 2 ppb penicillin G in fresh milk
  Intensity 1st band: 9
Receptor BlaR-CTD [1]; 3 ppb penicillin G in fresh milk
  Intensity 1st band: 4
Receptor BlaR-CTD [1]; 4 ppb penicillin G in fresh milk
  Intensity 1st band: 0
Receptor BlaR-CTD [1]; 5 ppb penicillin G in fresh milk
  Intensity 1st band: 0
Receptor BlaR-CTD [1]; 6 ppb penicillin G in fresh milk
  Intensity 1st band: 0
Receptor BlaR-CTD [1]; in 3 minutes, positive when first band is less intense than second band
  lowest concentration detected in a milk sample: less than 4 ppb
Receptor BlaR-CTD [2]
  lowest concentration detected in a milk sample: 3 ppb
